In article PMC8409435 (Journal of molecular biology, 2021):
Where no end group is shown, it is not given here.

How the values were obtained:
[1] = biological target: PKA-C^WT (catalytic α subunit of cAMP-dependent protein kinase A) (Homo sapiens, UniProt P17612); experiment: steady-state coupled enzyme assay; type: biochemical
[2] = biological target: PKA-C^E31V (catalytic α subunit of cAMP-dependent protein kinase A) (Homo sapiens, UniProt P17612, E32V); experiment: steady-state coupled enzyme assay; type: biochemical

Substance: LRRASLG [Kemptide]
- steady-state coupled enzyme assay (kcat/KM) [1]: 0.41 ± 0.05
- steady-state coupled enzyme assay (kcat/KM) [2]: 0.46 ± 0.04
